In the first assay the test system is cultured human mast cells (CHMC). The experiment in a line: CHMC low cell density IgE activation: tryptase assay. It counts as cell-based. The settings on record: Homo sapiens, Mast cell, Low Density; read-out: CHMC anti-IgE Tryptase. The protocol: Pellet CHMC cells (980 rpm, 10 min) and resuspend in pre-warmed MT. Add 65 ul of cells to each 96-well plate. Depending on the degranulation activity for each particular CHMC donor, load 1000-1500 cells/well. Mix four times followed by a 1 hr incubation at 37° C. […] Stimulate cells by adding 25 ul of 6× anti-IgE solution to the appropriate plates. Add 25 ul MT to un-stimulated control wells. Mix twice following addition of the anti-IgE. Incubate at 37° C. for 30 minutes. […] Spin plates at 1000 rpm for 10 min to pellet cells. Transfer 25 ul of supernatant to a 96-well black bottom plate and add 100 ul of freshly diluted tryptase substrate solution to each well. Incubate plates at room temperature for 30 min.
As for `Fc1cnc(Cl)nc1Nc1ccc(Cl)nc1` [Compound R920400], the IC50 is above 10000 nM.

Turning to `CN(C=C1C=CC=C(Nc2nc(Cl)ncc2F)C1)C(=O)OC(C)(C)C` [Compound R940315], the IC50 was above 10000 nM.

`Fc1cnc(Cl)nc1Nn1cccc1` [Compound R935275]: the IC50 was above 10000 nM.

The same assay, now with this note: low cell density; read-out: CHMC anti-IgE Tryptase.
As for `COc1ccc(Nc2nc(Nc3ccc4cnn(CCCO)c4c3)ncc2F)cc1Cl` [Compound R935407], the IC50 was found to be 393 nM.

`COc1c(Cl)cc(Nc2ncc(F)c(NC3CCC3)n2)cc1Cl` [Compound R945397]: the IC50 is 928 nM.

Regarding `COc1ccc(Nc2ncc(F)c(Nc3ccc4c(c3)C(NC(=O)OC(C)(C)C)CCO4)n2)cc1Cl` (racemic) [Compound R950427], the IC50 turned out to be 1900 nM.

On to `COc1cc(Nc2ncc(F)c(Nc3ccc(N4CCOCC4)c(Cl)c3)n2)cc(OC)c1` [Compound R926986], for which the IC50 stood at 345 nM.

With `CCN(C(C)=O)c1ccc(Nc2ncc(F)c(Nc3ccc4c(n3)NC(=O)CO4)n2)cc1` [Compound R945421], the IC50 came out at 371 nM.

As for `COc1ccc(Nc2nc(Nc3ccc4c(cnn4C)c3)ncc2F)cc1OC` [Compound R935412], the IC50 turned out to be 696 nM.

`CCN(CC)CCNC(=O)c1ccc(Nc2ncc(F)c(Nc3ccc4c(c3)NC(=O)[C@H](C)O4)n2)cc1` [Compound R950446]: the IC50 came to 148 nM.

Consider `O=C1COc2ccc(Nc3nc(Nc4ccc(Oc5ccccc5)cc4)ncc3F)nc2N1` [Compound R945409], for which the IC50 was above 10000 nM.

With `NC(=O)c1ccc(Nc2ncc(F)c(Nc3ccc4c(c3)NC(=O)C(F)(F)O4)n2)cc1` [Compound R950455], the IC50 is 217 nM.

Turning to `CCN(CC)CCNC(=O)c1ccc(Nc2ncc(F)c(Nc3ccc(Cl)c(Cl)c3)n2)cc1` [Compound R950445], the IC50 worked out at 379 nM.

Turning to `CC1(C)C(=O)NC(=O)c2cc(Nc3nc(Nc4ccc(CN)cc4)ncc3F)ccc21` [Compound R950463], the IC50 stood at 2460 nM.

As for `Fc1ccc(Nc2nc(Nc3ccc4cn[nH]c4c3)ncc2F)cc1F` [Compound R935400], the IC50 worked out at 502 nM.

`Cn1ncc2ccc(Nc3ncc(F)c(Nc4ccc5c(c4)NC(C)(C)CO5)n3)cc21` [Compound R908592]: the IC50 was determined as 50 nM.

As for `COc1ccc(Nc2nc(Nc3ccc4cnn(C)c4c3)ncc2F)cc1Cl` [Compound R935402], the IC50 turned out to be 216 nM.

`COc1ccc(Nc2nc(Nc3ccc4c(c3)CC(C(=O)N(C)C)O4)ncc2F)cc1Cl` (stereo not drawn) [Compound R927052]: the IC50 came out at 678 nM.

Consider `CNC(=O)COc1cccc(Nc2ncc(F)c(Nc3cc(Cl)c(OC)c(Cl)c3)n2)c1` [Compound R927057], for which the IC50 was determined as 370 nM.

Turning to `O=C(COc1cccc(Nc2ncc(F)c(NC3CCC3)n2)c1)NC1CCC1` [Compound R945396], the IC50 was 2240 nM.

Take `CCOC(=O)CCn1ncc2ccc(Nc3ncc(F)c(Nc4ccc(Cl)c(Cl)c4)n3)cc21` [Compound R935403]: the IC50 came out at 821 nM.

On to `Fc1cc(Nc2nc(Nc3ccc4[nH]ncc4c3)ncc2F)ccc1Cl` [Compound R935415], for which the IC50 turned out to be 237 nM.

With `CNC(=O)COc1cccc(Nc2ncc(F)c(Nc3ccc4c(c3)C(NC)CCO4)n2)c1` (racemic) [Compound R950412], the IC50 was 301 nM.

As for `C[C@@H]1Oc2ccc(Nc3nc(Nc4ccc(C(N)=O)cc4)ncc3F)cc2NC1=O` [Compound R950452], the IC50 stood at 101 nM.

Take `COc1ccc(Nc2nc(Nc3cc(C)cc(C)c3)ncc2F)cc1Cl` [Compound R926991]: the IC50 is 436 nM.

`COc1c(C)cc(Nc2ncc(F)c(Nc3ccc4c(c3)OCCO4)n2)cc1C` [Compound R940396]: the IC50 was 22700 nM.

On to `Fc1cnc(NC2CC2)nc1NC1CC1` [Compound R945376], for which the IC50 was above 10000 nM.

For the compound `CC(=O)N(C)c1ccc(Nc2nc(NC3CCC3)ncc2F)cc1` [Compound R945379], the IC50 is above 10000 nM.

Consider `CNC(=O)CCn1ncc2ccc(Nc3ncc(F)c(Nc4ccc5c(c4)NC(=O)C(C)(C)O5)n3)cc21` [Compound R935435], for which the IC50 stood at 337 nM.

With `CNC(=O)CCn1ncc2ccc(Nc3ncc(F)c(Nc4ccc(OC)c(Cl)c4)n3)cc21` [Compound R935409], the IC50 came out at 1170 nM.

`COc1cc(Nc2ncc(F)c(Nc3ccc4c(c3)NC(=O)C(C)(C)O4)n2)cc(OC)c1` [Compound R927072]: the IC50 came to 64 nM.

Consider `COc1c(Cl)cc(Nc2ncc(F)c(Nc3ccc(Cl)c(Cl)c3)n2)cc1Cl` [Compound R927058], for which the IC50 was found to be 12200 nM.

For the compound `CC(C)(C)OC(=O)NCc1ccc(Nc2ncc(F)c(Nc3ccc4c(c3)C(=O)NC(=O)C4(C)C)n2)cc1` [Compound R950462], the IC50 is above 10000 nM.

For `CNC(=O)COc1cccc(Nc2ncc(F)c(Nc3cc(C)c(OC)c(Cl)c3)n2)c1` [Compound R926974], the IC50 turned out to be 293 nM.

For `CNC(=O)CCn1ncc2cc(Nc3ncc(F)c(Nc4ccc(Cl)c(Cl)c4)n3)ccc21` [Compound R935390], the IC50 came to 544 nM.

In the case of `Cc1cc(Nc2ncc(F)c(Nc3ccc4c(n3)NC(=O)C(C)(C)O4)n2)cc(Cl)c1O` [Compound R940394], the IC50 came to 16500 nM.

For `COc1cc(Nc2ncc(F)c(Nc3ccc4c(c3)NC(=O)C(C)(C)O4)n2)cc(OC)c1` [Compound R927071], the IC50 was found to be 67 nM.

For the compound `COc1ccc(Nc2ncc(F)c(Nc3ccc4c(c3)NC(=O)C(C)(C)O4)n2)c(OC)n1` [Compound R927068], the IC50 is 890 nM.

As to `CNC(=O)CCn1ncc2ccc(Nc3ncc(F)c(Nc4ccc(Cl)c(Cl)c4)n3)cc21` [Compound R935404], the IC50 is 581 nM.

Regarding `CC(=O)N1CCN(c2ccc(Nc3nc(NC4CCC4)ncc3F)cc2)CC1` [Compound R945382], the IC50 is above 10000 nM.

`Cn1ncc2cc(Nc3ncc(F)c(Nc4ccc(F)c(Cl)c4)n3)ccc21` [Compound R935426]: the IC50 was above 10000 nM.

Take `CC(=O)N1CCN(c2ccc(Nc3nc(NC4CC4)ncc3F)cc2)CC1` [Compound R945381]: the IC50 is above 10000 nM.

In the case of `CNC(=O)COc1cccc(Nc2ncc(F)c(Nc3ccc4c(c3)NC(=O)C(F)(F)O4)n2)c1` [Compound R945415], the IC50 was found to be 46 nM.

Take `C[C@@H]1Oc2ccc(Nc3nc(Nc4ccc(CN)cc4)ncc3F)cc2NC1=O` [Compound R950461]: the IC50 was determined as 142 nM.

As for `COC(=O)c1ccc(Cn2ncc3ccc(Nc4ncc(F)c(Nc5ccc6c(c5)NC(=O)C(C)(C)O6)n4)cc32)c(OC)c1` [Compound R935442], the IC50 was determined as 701 nM.

Consider `COc1ccc(Nc2nc(Nc3cc(Cl)c(OC)c(Cl)c3)ncc2F)cc1Cl` [Compound R927054], for which the IC50 is above 10000 nM.

Regarding `COc1ccc(Nc2nc(Nc3cc(C)c(C)c(C)c3)ncc2F)cc1Cl` [Compound R926993], the IC50 worked out at 689 nM.

Take `Fc1ccc(Nc2nc(Nc3ccc4[nH]ncc4c3)ncc2F)cc1Cl` [Compound R935428]: the IC50 stood at 1270 nM.

In the case of `COc1c(Cl)cc(Nc2ncc(F)c(Nc3ccc4c(c3)C(=O)NC(=O)C4(C)C)n2)cc1Cl` [Compound R908955], the IC50 was found to be 293 nM.

On to `COc1ccc(Nc2nc(Nc3cc(Cl)cc(Cl)c3)ncc2F)cc1Cl` [Compound R926990], for which the IC50 was determined as 11300 nM.

As to `Cc1cc(Nc2ncc(F)c(Nc3ccc4c(c3)OCCO4)n2)cc(Cl)c1O` [Compound R940393], the IC50 came to 5260 nM.

Take `Fc1cnc(NC2CCC2)nc1NC1CCC1` [Compound R945380]: the IC50 was above 10000 nM.

On to `CNC(=O)COc1cccc(Nc2ncc(F)c(NC3CCC3)n2)c1` [Compound R945387], for which the IC50 is 1120 nM.

Regarding `CC(=O)N(C)c1ccc(Nc2nc(NC3CC3)ncc2F)cc1` [Compound R945375], the IC50 is above 10000 nM.

`OCCCn1ncc2ccc(Nc3ncc(F)c(Nc4ccc(Cl)c(Cl)c4)n3)cc21` [Compound R935405]: the IC50 was 389 nM.

Consider `COc1cc(Nc2ncc(F)c(Nc3ccc(N4CCOCC4)c(Cl)c3)n2)cc(C(F)(F)F)c1` [Compound R926987], for which the IC50 came to 10000 nM.

Turning to `CCNC1CCC(Oc2ccc(Nc3nc(Nc4cccc(OCC(=O)NC)c4)ncc3F)cc2Cl)CC1` (mixture of isomers) [Compound R945411], the IC50 was 2860 nM.

For the compound `CC1(C)Oc2ccc(Nc3ncc(F)c(Nc4ccc(Cl)c(Cl)c4)n3)cc2NC1=O` [Compound R927059], the IC50 was 291 nM.

For `COc1cc(Nc2nc(N[C@@H]3CCCC[C@H]3N)ncc2F)cc(OC)c1` [Compound R950439], the IC50 was above 10000 nM.

Consider `Cc1cccc(C)c1Nc1ncc(F)c(Nc2ccc(Cl)c(Cl)c2)n1` [Compound R927079], for which the IC50 turned out to be 599 nM.

As for `COc1c(C)cc(Nc2ncc(F)c(Nc3ccc4c(n3)NC(=O)C(C)(C)O4)n2)cc1C` [Compound R940395], the IC50 was above 10000 nM.

As for `COc1c(C)cc(Nc2ncc(F)c(Nc3ccc4c(c3)OCCO4)n2)cc1Cl` [Compound R940397], the IC50 amounted to 3700 nM.

A further assay deals with Human Jurkat T-cells (clone N). The experiment in a line: Jurkat T-cell activation (anti-TCR, CD69 upregulation). It counts as cell-based.
Conditions: not given
An outline of the steps:
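Readout is CD69 upregulation by flow cytometry (anti-CD69-APC, 20 min at 4 °C) after 20 h anti-TCR (C305, 500 ng/ml) stimulation at 37 °C.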
In the case of `CNC(=O)Cn1ncc2cc(Nc3ncc(F)c(Nc4ccc5c(cnn5CC(=O)NC)c4)n3)ccc21` [Compound R935217], the IC50 was above 10000 nM.

As to `COC(=O)COc1cc(O)cc(Nc2ncc(F)c(Nc3cccc(O)c3)n2)c1` [Compound R926927], the IC50 amounted to 5530 nM.

Regarding `CCOC(=O)CNC(=O)Oc1cccc(Nc2nc(Nc3cccc(OCC(=O)NC)c3)ncc2F)c1` [Compound R926918], the IC50 came to 4690 nM.

Turning to `CCOC(=O)COc1cccc(Nc2ncc(F)c(Nc3ccc(-n4cnc(Cl)c4Cl)cc3)n2)c1` [Compound R926809], the IC50 is above 10000 nM.

For the origin of these results see patent publication US8158621B2, “Methods of treating or preventing autoimmune diseases with 2,4-pyrimidinediamine compounds” (Rigel Pharmaceuticals, Inc., priority 2002, dated 2012).
